Tests used:
[1] = system: transient focal cerebral ischemia induced by Middle Cerebral Artery Occlusion (MCAO); test: Animal cerebral infarct assay: two-hour Middle Cerebral Artery Occlusion (MCAO) with reperfusion; assay type: in vivo, rat; conditions: intraventricular (i.c.v.), 0.0067 mg/kg to 0.67 mg/kg
Source text: This assay is used to assess the efficacy of the test agents in protecting the brain against necrosis following cerebral ischemia induced in rats. Middle Cerebral Artery Occlusion (MCAO) is a widely used technique to induce transient focal cerebral ischemia in animal models. […] Furthermore, this model accurately represents the involvement of middle cerebral artery (MCA), the most affected vessel in human stroke, and also allows reperfusion as it happens in humans. MCAO by a two-hour occlusion is used to produce the maximum size of cortical infarction without increased mortality at twenty-four hours. Male Wistar rats (Hadan, Ind.) weighing 300-350 g were allowed free access to water and commercial rodent diet under standard laboratory conditions. The room temperature was maintained at 20-23° C. and room illumination was on a 12/12-hour light/dark cycle. The rats were acclimatized to the laboratory environment 5 to 7 days prior to the study. Before surgery, the animals were fasted overnight, but had free access to water. The rats were anesthetized with 3.0% isoflurane (Aerrane, Front Dodge, Iowa) in […] and the animal's neck was shaved and sterilized before the operation. The animals were subjected to two hours MCAO using a modified intraluminal filament technique. A midline incision on the ventral part of the neck was made to expose external and internal carotid arteries. The right external and common carotid arteries were ligated by a suture (silk 5/0, Carlisle Laboratories, Farmers Branch, Tex.) and the right internal artery was temporarily ligated by a microvascular clip (Fine Science Tool Inc., Foster City, Calif.). A small incision was made in the common carotid artery and a nylon filament, its tip rounded by heating, prepared from a fishing line (Stren Fishing Lines, Wilmington, Del.) was inserted from the right common carotid artery. The filament was advanced into the internal carotid artery 18-20 mm from the point of bifurcation of internal and external arteries and a suture was tightly ligated around the filament. Two hours post occlusion, the animals were re-anesthetized to allow reperfusion for the remaining of the experiment by removal of the filament. The anesthetized animal were placed on a stereotaxic apparatus (Harvard Apparatus, S. Natick, Mass.). Anesthesia was maintained by inhalation of 3.0% isoflurane in […] throughout the entire procedure. The scalp was shaved and sterilized prior to surgery. A midline sagittal incision about 3 cm long was made slightly behind the eyes to expose the skull. The skull was scraped with a rounded end spatula to remove periosteal connective tissue. A bur hole was placed 1.5 mm lateral, 1 mm posterior to the left of the bregma to mark the left lateral ventricle. A brain infusion cannula (ALZET CO. Palo Alto, Calif.) was inserted 4 mm deep into the hole. The desired depth was adjusted by attaching spacers to the cannula. The cannula was attached to a 4-cm silastic catheter (Helix Medical Inc.) fixed in place with dental cement (Ketac-cement, Norristown, Pa.). The catheter was either attached to a primed osmotic pump placed subcutaneously between the shoulder blades for permanent infusion or to a syringe for a short infusion. Anesthesia was maintained by inhalation of 3.0% isoflurane in […] throughout the entire procedure. The exterior site of the right femoral vein was shaved and sterilized prior to surgery. A 3 cm incision was made in the right groin region and the femoral vein was isolated. A small incision was made on the femoral vein temporarily ligated with a microvascular clip to introduce and advance a polyethylene (PE-50) catheter (Becton. Dickinson and Co., Sparks, Md.). The catheter was secured in place with suture (silk 5/0, Carlisle Laboratories, Farmers Branch, Tex.). The other end of the catheter was attached to a syringe filled with the heparinized saline for the bolus injection. […]

[2] = system: primary neonate myocytes (cardiomyocytes); test: Isolated heart cell (myocyte) preparation model of myocardial cell ischemia (Example 4); assay type: cell-based, rat; conditions: 37-111 micromolar
Source text: Two-day old rat pups are removed from their mothers and placed in a sterile container. Pups are dipped quickly into 70% alcohol, then decapitated and the body is placed in an empty sterile tissue culture dish. An incision is made starting at the neck and progressing towards the belly, cutting through the sternum. The heart is removed and placed in a tissue culture dishes containing 1×HDS. The atria are trimmed, and the remaining ventricles are placed into a separate tissue culture dish containing 1×HDS, where they are sectioned into 3-4 pieces each. Ventricles are then transferred to a sterile 250 ml glass flask and the 1×HDS is removed. Twenty milliliters of pre-warmed collagenase solution are added to the ventricles, followed by incubation at 37° C. with shaking. After 30 minutes, the collagenase solution is removed and replaced with 20 ml fresh pre-warmed collagenase. Incubation is continued for an additional 30 minutes. At the end of the incubation, any tissue chunks are allowed to settle prior to removing the collagenase (containing the isolated cardiomyocytes) from the disrupted tissue pieces. The isolated myocytes are added to a 50 ml Falcon tube containing 2 ml Fetal Bovine Serum (FBS). […]
A small aliquot of the cell suspension is counted in a hemocytometer. […]

For bromo-quercetin, the “reductions of infarct volumes” value [1] was “greater than 50%” and the “preventing or reducing myocardial damage” value [2] was “effective”.

— patent US20020132845A1, “Compositions and methods for the prevention and treatment of tissue ischemia” (priority 2000, published 2002)
